The numbers were not newly measured in patent US20170106067A1, “COMBINATORIAL IMMUNOTHERAPY FOR PANCREATIC CANCER TREATMENT” (THE JOHNS HOPKINS UNIVERSITY, priority 2014, published 2017), which cites them from elsewhere.

The subject of the data set is metastatic PDA. Particulars: Le et al., 2013.

Take ipilimumab: the “clinical anti tumor activity in metastatic PDA patients” value is “failed to demonstrate durable and effective anti tumor activity”.
